Here are results for 17 molecules from PubChem BioAssay (NCI).

Experiment in all cases: NCI tumour cell line growth inhibition, 48 h
The subject of test [1] is 786-0 renal.
Test [2] has as its system CAKI-1 renal.
Test [3] has as its system CCRF-CEM leukemia.
The test system of test [4] is IGROV1 ovarian.
The subject of test [5] is MDA-MB-231 breast.
In test [6] the test system is MDA-MB-435.
Test [7] relates to NCI-H23 lung.
Test [8] has as its system NCI-H522 lung.
Test [9] relates to NCI/ADR-RES ovarian.
Test [10] concerns OVCAR-3 ovarian.
For test [11], the system named is OVCAR-4 ovarian.
The subject of test [12] is OVCAR-5 ovarian.
Test [13] concerns SF-539 CNS.
Test [14] relates to SR leukemia.
Test [15] has as its system SW-620 colon.
Test [16] has as its system T-47D breast.
For test [17], the system named is TK-10 renal.
In test [18] the test system is DU-145 prostate.
Test [19] has as its system NCI-H460 lung.

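96-well plates; 48 h exposure; 5 concentrations. Endpoints by linear interpolation between flanking doses. Not reached: highest tested concentration assigned. TGI denotes the concentration required for complete inhibition of growth.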

Take `c1ccc(CNc2nncc3[nH]cnc23)cc1`: the TGI in [1], in test [2], in test [3], in test [4], in test [5] and in test [6] was over 100 µM each time. Besides, the TGI in [7], in [8], in test [9], in test [10], in test [11] and in [12] was over 100 µM throughout. Moreover, the TGI in test [13], in test [14], in test [15], in test [16] and in [17] was over 100 µM in each case.
For the molecule `Nc1nc(-c2ccccc2)cc(-c2ccc(OCc3ccccc3)cc2O)n1`, the TGI in [1], in test [2], in [3], in test [18], in test [4] and in test [5] was over 100 µM each time. Further, the TGI in [6] was over 100 µM; in [7], over 100 µM; in test [19], over 100 µM; in test [8], 90.7 µM; in test [9] it was over 100 µM; in test [10] it was 89.1 µM. The TGI in test [11] is over 100 µM; in test [12], over 100 µM; in test [13] it was over 100 µM; in test [14] it was over 100 µM; in [15] it was over 100 µM; in [17], 91 µM.
Take `O=C1CC(c2cccc([N+](=O)[O-])c2)C2(C(=O)NC(=O)NC2=O)C(c2cccc([N+](=O)[O-])c2)C1` (stereo not drawn): the TGI in test [1], in test [3], in [18], in [4], in test [5] and in [6] was over 100 µM throughout. Besides, the TGI is over 100 µM in [7]; over 100 µM in test [19]; over 100 µM in test [8]; over 100 µM in [9]; 58.2 µM in test [10]; over 100 µM in test [11]. For the same molecule, the TGI in test [12], in test [13], in test [14] and in [15] was over 100 µM in each case.
For `CCOC(=O)Cc1nc2cc(F)c(F)cc2[nH]c1=O`, the TGI in [1], in test [2], in [3], in [18], in [5] and in [6] was over 100 µM throughout. Besides, the TGI in test [7], in [19], in [9], in test [10], in test [11] and in test [12] was over 100 µM in each case. For the same molecule, the TGI in test [13], in [15] and in test [17] was over 100 µM in each case.
With `Cn1c([C@H](C#N)c2ncccc2[N+](=O)[O-])nc2ccccc21`, the TGI in [1], in test [2], in test [3], in test [5], in [6] and in test [7] was over 100 µM in each case. Moreover, the TGI was over 100 µM in [19]; 38.3 µM in test [8]; over 100 µM in [9]; over 100 µM in [10]; over 100 µM in test [12]; 95.4 µM in [13]. In addition, the TGI in test [14], in [15] and in test [17] was over 100 µM in each case.
Regarding `CC(=O)ONC(C(=O)C(C)(C)C)C(=O)C(C)(C)C`, the TGI in [1], in [2], in [3], in [18], in [4] and in [5] was over 100 µM throughout. Besides, the TGI in [7], in test [19], in [8], in test [9], in test [10] and in [11] was over 100 µM each time. Besides, the TGI in [12], in test [13], in [15], in [16] and in test [17] was over 100 µM each time.
Take `CC(C)=C[C@H]1CCC2(OCCO2)[C@]1(C)CO`: the TGI in test [1], in [2], in [3], in test [4], in test [5] and in test [6] was over 100 µM throughout. Besides, the TGI in test [7], in test [19], in test [8], in test [9], in [11] and in test [12] was over 100 µM each time. In addition, the TGI in test [13], in test [15], in [16] and in [17] was over 100 µM in each case.
As to `CC(C)=C[C@H]1CCC2(OCCO2)[C@]1(C)COCc1ccccc1`, the TGI in test [1] was 80.1 µM; in [2], over 100 µM; in test [3] it was 34.5 µM; in test [5], 53.7 µM; in test [6] it was over 100 µM; in test [7], over 100 µM. Also, the TGI in [19] was 59 µM; in test [8] it was 62.1 µM; in [9], over 100 µM; in test [10], 52.7 µM; in [11], over 100 µM; in test [12], 82.1 µM. For the same molecule, the TGI in test [13] is 61.7 µM; in test [15], over 100 µM; in test [16] it was over 100 µM; in test [17] it was over 100 µM.
Regarding `CCN(CC)CCSc1c2cc(OC)ccc2nc2ccc(OC)cc12`, the TGI is 4.1 µM in test [1]; 22.9 µM in test [2]; over 22.6 µM in [3]; 3.56 µM in test [18]; 4.11 µM in [4]; 19.9 µM in test [5]. Further, the TGI in test [6] is 21.3 µM; in test [7], over 25.7 µM; in test [19], over 61 µM; in [8] it was 3.1 µM; in test [9], over 25.9 µM; in test [10] it was 8.07 µM. Moreover, the TGI was 16.9 µM in [11]; 44.5 µM in test [12]; over 100 µM in test [13]; over 21.8 µM in [14]; over 100 µM in [15]; 22.1 µM in [17].
Take `CC1(C)C[C@@H]2C1CCC1(C)CC2(O)CC[C@H]1O` (stereo partly drawn): the TGI in test [1], in test [2], in test [3], in test [4], in test [6] and in test [7] was over 100 µM each time. Moreover, the TGI in test [19], in test [8], in [9], in test [10], in test [11] and in test [12] was over 100 µM each time. For the same molecule, the TGI in [14], in test [15], in test [16] and in test [17] was over 100 µM in each case.
Take `COc1cc(OC)c2c(C)cc(=O)oc2c1`: the TGI in test [1], in [3], in test [18], in test [4], in test [5] and in test [6] was over 100 µM throughout. Further, the TGI in [7], in test [9], in test [10], in test [11], in [12] and in [13] was over 100 µM each time. Further, the TGI in [14], in test [15] and in test [17] was over 100 µM each time.
On to `Cn1c(O)c(C(=O)NC2CCCCC2)c(=O)n(C)c1=S`, for which the TGI in test [1] is 22.9 µM; in [2], 26.5 µM; in test [3] it was over 100 µM; in test [4], 27.8 µM; in test [7] it was 14.5 µM; in test [19] it was 21.9 µM. Further, the TGI is 16.9 µM in test [8]; 26.6 µM in [10]; 42.7 µM in test [11]; 38.9 µM in test [12]; 21.4 µM in test [13]; 48.9 µM in test [14]. For the same molecule, the results for the TGI in [15] and in test [17] were 25 µM and 33.3 µM, respectively.
`O=c1c2ccccc2nc(Cc2nc(-c3ccc(Cl)cc3)cs2)n1-c1ccc(Cl)cc1`: the TGI in test [1], in test [2], in test [3], in test [18], in test [4] and in test [5] was over 100 µM in each case. In addition, the TGI in [6], in test [7], in test [19], in test [8], in [9] and in test [10] was over 100 µM throughout. Further, the TGI in test [11], in test [12], in test [15] and in test [17] was over 100 µM in each case.
Take `O=C(NC(Cc1ccccc1)(Cc1ccc(O)cn1)C(=O)O)c1ccccc1` (stereo not drawn): the TGI in test [1], in test [2], in test [3], in test [18], in test [4] and in test [5] was over 100 µM in each case. For the same molecule, the TGI in test [6], in [7], in test [19], in [8], in test [9] and in test [10] was over 100 µM each time. Also, the TGI in [11], in [12], in test [13], in [15] and in test [17] was over 100 µM in each case.
In the case of `O=C1c2ccsc2C(=O)c2sc(CO)cc21`, the TGI was 0.855 µM in test [1]; 9.69 µM in test [2]; 1.35 µM in test [3]; 1.36 µM in test [4]; 0.48 µM in test [5]; under 0.0178 µM in test [6]. Also, the TGI is 0.394 µM in test [7]; 2.17 µM in [19]; 0.259 µM in [8]; 0.396 µM in test [9]; 2.74 µM in test [10]; 0.31 µM in test [11]. For the same molecule, the TGI in test [12] was 2.12 µM; in [13], 0.1 µM; in test [14], over 10.8 µM; in test [15], 0.164 µM; in test [17], 10.1 µM.
Consider `C(/C=C/Nc1ccc(Oc2ccccc2)cc1)=Nc1ccc(Oc2ccccc2)cc1`, for which the TGI in test [1] was found to be 32.2 µM; in test [2], 32.7 µM; in test [3], 37 µM; in test [18] it was 39.5 µM; in [4], 33 µM; in test [5] it was 31.1 µM. The TGI came to 31.7 µM in test [6]; 48.7 µM in [7]; 30.6 µM in test [19]; 37.7 µM in test [8]; 33.5 µM in [9]; 34.3 µM in test [10]. Moreover, the TGI is 32.8 µM in test [11]; 50.2 µM in test [12]; 32.9 µM in test [13]; 39.7 µM in [14]; 34.6 µM in test [15]; 34.7 µM in test [17].
Regarding `NNC(=S)N/N=C(/C(=O)Nc1ccc(Cl)c(Cl)c1)C(C1OC(=O)c2ccccc21)[N+](=O)[O-]` (stereo not drawn), the TGI in test [1], in [2], in test [3], in test [4], in [5] and in [6] was over 100 µM each time. Also, the TGI in [7], in [19], in test [8], in test [9], in test [10] and in [11] was over 100 µM in each case. In addition, the TGI in test [12], in [13], in test [15], in [16] and in [17] was over 100 µM in each case.
